Results: US10017741B2, “Compositions and methods for obtaining enriched mesenchymal stem cell cultures” (StemCell Technologies Inc., priority 2013, dated 2018)
Values joined by “and” are separate entries in the source; they are usually repeats but may differ in a detail not shown here. Equal values may be shown once. “Also recorded” adds a separate entry of the source.

How the values were obtained:
[1] = test system: BM-derived cultures (CD45+/CD11b+ macrophages, Sca1+ monocytes); assay: Flow cytometry of BM-derived expansion cultures; assay type: cell-based, mouse
Procedure: (§1) c. Expansion of Human BM and Mouse BM and CB-Derived Cells Assay • 1. […] Cultures were allowed to grow for 10-14 days until adherent cells achieved 70 to 80% confluence. Mouse cultures were maintained under normal (5% CO2) or hypoxic conditions (5% CO2/5% O2) at 37 C in a cell culture incubator. Human cultures were maintained under 5% CO2 at 37 C in a humidified cell culture incubator. • 3. Adherent cells were passaged by releasing cultures from flask. Cultures were washed with 5 mL PBS and then 5 mL of 0.25% trypsin solution ([…] catalogue #07901) was added and the flasks incubated for 10 min at 37 C. To each flask, 5 mL complete medium was added to stop trypsin activity. • 4. Released cells were collected into a tube and centrifuged at 300×g for 5 minutes. • 5. Cells were resuspended in 2 mL of medium and counted using a hemocytometer. • 6. […] P1 cultures were incubated until they reached 70 to 80% confluence. • 8. Passaged cultures can be used at any time from P0 to P10 as needed for different applications.
d. Flow Cytometry Analysis • 1. Cultures of BM and CB-derived cells were trypsinized for 10 minutes and an equal volume of complete medium was added to cultures to stop trypsin activity • 2. Cell suspension was filtered through a 40 μm strainer, and cells counted using a hemocytometer • 3. Suspension was spun down at 300×g for 5 minutes. • 4. Supernatant was removed and cell pellet resuspended in FACS buffer (PBS with 2% FBS and 1 mM EDTA) • 5. A total of 1×10^5 cells in 300 μL FACS buffer was used for each flow cytometry analysis tube, including unstained, viability, compensation, and isotype controls. • 6. Cell suspensions were stained with fluorophore-labeled antibodies against CD45, CD11b, and Sca1, CD29, and viability dye. • 7. Cell suspensions were analyzed on a flow cytometer using compensation and isotype control to determine laser voltage and gating. • 8. Samples were gated on viable CD45^+ cells and 10,000 events per sample were collected. Alternatively, cells were gated on viable CD45^− cells and out of this gate the proportion of CD29+/Sca1^+ cells obtained.

[2] = test system: BM-derived cultures (macrophage contamination, MSC morphology); assay: Images of BM-derived expansion cultures; assay type: cell-based, mouse; conditions: for macrophage contamination and MSC enrichment (images): BM
Procedure: as §1

SMILES: COc1ccc(COc2ccc(Cc3cnc(N)nc3N)cc2OC)cc1 [GW2580, 5-(3-Methoxy-4-((4-methoxybenzyl)oxy)benzyl)pyrimidine-2,4-diamine]
- number of CD45+/CD11b+/Sca1+ cells ([1]; BM, 1 μM): 55%
- number of CD45+ cells ([1]; BM, 1 μM (control 52%)): 45%
- CD11b+/Sca1+ hematopoietic monocytes, of CD45+ cells ([1]; BM, 1 μM P0 to P2): 44%
- CD11b+/Sca1− mature macrophages, of CD45+ cells ([1]; BM, 1 μM P0 to P2): 56%
- overall reduction in CD45+ cells ([1]; BM, 1 μM P0 to P2): 18%
- reduction in CD45+/CD11b+/Sca1+ monocyte differentiation into mature macrophage (increase in Sca1+ fraction vs control) ([1]; BM, 1 μM P0 to P2): 36%
- CD11b+/Sca1+ hematopoietic monocytes, of CD45+ cells ([1]; BM, 1 μM P0 to P3): 52%
- CD11b+/Sca1− mature macrophages, of CD45+ cells ([1]; BM, 1 μM P0 to P3): 41%
- overall reduction in CD45+ cells ([1]; BM, 1 μM P0 to P3): 64%
- reduction in CD45+/CD11b+/Sca1+ monocyte differentiation into macrophages (monocytes prevented from differentiating) ([1]; BM, 1 μM P0 to P3): > 50% and 52%
- reduction in CD45+/CD11b+/Sca1− mature macrophage differentiation ([1]; BM, 1 μM, at P3): > 50%
- number of CD45+/CD11b+/Sca1+ cells ([1]; BM, 5 μM): 40%
- number of CD45+ cells ([1]; BM, 5 μM (control 52%)): 33%
- number of CD45+/CD11b+/Sca1+ cells ([1]; BM, 10 μM): 34%
- number of CD45+ cells ([1]; BM, 10 μM (control 52%)): 28%
- CD45+/CD11b+ mature macrophages, of total viable cells ([1]; BM, P1, 1 μM): 60% and 62%
- reduction in macrophages vs control ([1]; BM, P1, 1 μM): 20%
- CD45+/CD11b+ mature macrophages, of viable cells ([1]; BM-derived cultures, 1 μM up to P2): < 1%
- macrophage contamination and MSC enrichment (images) ([2]; 1 μM continuous P0-P3): have reduced numbers of macrophages; also recorded: contain a much reduced number of these contaminating macrophages
- macrophage contamination and MSC enrichment (images) ([2]; 1 μM, P2): a much reduced number of macrophages is observed; also recorded: enriched and mostly devoid of macrophage contamination
- macrophage contamination and MSC appearance (images) ([2]; BM, 1, 5 and 10 μM): have reduced numbers of contaminating macrophages; also recorded: a noticeable decrease in macrophages was noticed
